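Test compounds were applied to cells in 96-well plates for 48 hours at 5 doses. GI50 = concentration required for 50% inhibition of growth.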 Calls of active or inactive are those of the source. Cut-off read from the data, not from the text of the source: active = GI50 up to about 1.1 µM and inactive = higher.
Tests used:
Experiment in all cases: DTP human tumour cell line panel, 48 h
SK-OV-3 = test system: SK-OV-3
CAKI-1 = test system: CAKI-1
HCC 2998 = test system: HCC 2998
SF-295 = test system: SF-295
UO-31 = test system: UO-31
RXF 393 = test system: RXF 393
SN12C = test system: SN12C
OVCAR-3 = test system: OVCAR-3
Hs-578T = test system: Hs-578T
K562 = test system: K562
MDA-N = test system: MDA-N
BT-549 = test system: BT-549
SF-268 = test system: SF-268
786-0 = test system: 786-0
U-251 = test system: U-251
NCI-H23 = test system: NCI-H23
A549 = test system: A549
UACC-257 = test system: UACC-257
NCI-H522 = test system: NCI-H522
A498 = test system: A498

SMILES | GI50 (SK-OV-3) | GI50 (CAKI-1) | GI50 (HCC 2998) | GI50 (SF-295) | GI50 (UO-31) | GI50 (RXF 393) | GI50 (SN12C) | GI50 (OVCAR-3) | GI50 (Hs-578T) | GI50 (K562) | GI50 (MDA-N) | GI50 (BT-549) | GI50 (SF-268) | GI50 (786-0) | GI50 (U-251) | GI50 (NCI-H23) | GI50 (A549) | GI50 (UACC-257) | GI50 (NCI-H522) | GI50 (A498)
Cc1ccc(OCC2OC(n3cnc4nc(Nc5ccc(Cl)c(Cl)c5)nc(Cl)c43)CC2Oc2ccc(C)cc2)cc1 (stereo not drawn) | > 100 µM (inactive) | > 100 µM (inactive) | > 100 µM (inactive) | > 100 µM (inactive) | > 100 µM (inactive) | > 100 µM (inactive) | > 100 µM (inactive) | > 100 µM (inactive) | > 100 µM (inactive) | > 100 µM (inactive) | > 100 µM (inactive) | > 100 µM (inactive) | > 100 µM (inactive) | > 100 µM (inactive) | > 100 µM (inactive) | > 100 µM (inactive) | > 100 µM (inactive) | > 100 µM (inactive) | – | –
COC1C(O)CC(OC2CC(OC3CC(O[C@@H]4C(=O)c5c(cc6cc(OC7CC(OC8CC(O)C(O)C(C)O8)C(O)C(C)O7)c(C)c(O)c6c5O)C[C@H]4[C@H](OC)C(=O)[C@@H](O)[C@@H](C)O)OC(C)C3O)OC(C)C2O)OC1C (stereo partly drawn) | < 0.0236 µM (active) | 0.356 µM (active) | 0.0136 µM (active) | < 0.0173 µM (active) | 0.0318 µM (active) | < 0.01 µM (active) | < 0.0197 µM (active) | < 0.0271 µM (active) | < 0.01 µM (active) | – | – | < 0.01 µM (active) | 0.0141 µM (active) | < 0.0194 µM (active) | 0.0112 µM (active) | – | < 0.0151 µM (active) | < 0.0166 µM (active) | < 0.0118 µM (active) | –
CCOc1ncn(-c2ccc(NC(=S)Nc3cnccn3)cc2)n1 | > 10 µM (inactive) | – | – | > 10 µM (inactive) | > 10 µM (inactive) | > 10 µM (inactive) | > 10 µM (inactive) | > 10 µM (inactive) | > 10 µM (inactive) | > 10 µM (inactive) | > 10 µM (inactive) | > 10 µM (inactive) | > 10 µM (inactive) | > 10 µM (inactive) | > 10 µM (inactive) | > 10 µM (inactive) | > 10 µM (inactive) | > 10 µM (inactive) | > 10 µM (inactive) | –
CN1B(c2ccccc2)N(C)C(=O)N(C)C1=O | > 100 µM (inactive) | 52.2 µM (inactive) | – | > 100 µM (inactive) | 20.5 µM (inactive) | > 100 µM (inactive) | > 100 µM (inactive) | – | 81.3 µM (inactive) | > 100 µM (inactive) | > 100 µM (inactive) | > 100 µM (inactive) | > 100 µM (inactive) | > 100 µM (inactive) | > 100 µM (inactive) | > 100 µM (inactive) | > 100 µM (inactive) | > 100 µM (inactive) | – | –
CC(=O)/C(=C/NC(=S)N/N=C1\C(=O)Nc2ccccc21)C(=O)Nc1ccccc1C | > 100 µM (inactive) | 47.4 µM (inactive) | > 100 µM (inactive) | > 100 µM (inactive) | 44.3 µM (inactive) | 83.8 µM (inactive) | > 100 µM (inactive) | 75.2 µM (inactive) | – | – | > 100 µM (inactive) | > 100 µM (inactive) | > 100 µM (inactive) | 82.2 µM (inactive) | > 100 µM (inactive) | > 100 µM (inactive) | > 100 µM (inactive) | > 100 µM (inactive) | – | 57.7 µM (inactive)
CC1OC(OC2C(OC(=O)[C@]34CCC(C)(C)C[C@H]3C3=CC[C@@H]5[C@@]6(C)CC[C@H](OC7OC(CO)C(O)C(O)C7OC7OC(CO)C(O)C(O)C7O)C(C)(C)[C@@H]6CC[C@@]5(C)[C@]3(C)CC4)OCC(O)C2O)C(O)C(O)C1OC1OCC(O)C(O)C1O (stereo partly drawn) | 16.3 µM (inactive) | 5.01 µM (inactive) | 1.98 µM (inactive) | 11.2 µM (inactive) | 2.3 µM (inactive) | 9.48 µM (inactive) | 3.13 µM (inactive) | 23.9 µM (inactive) | 20.7 µM (inactive) | 10.8 µM (inactive) | – | 9.12 µM (inactive) | 6.85 µM (inactive) | 8.3 µM (inactive) | 15.1 µM (inactive) | 9.35 µM (inactive) | 6.37 µM (inactive) | 2.51 µM (inactive) | 3.67 µM (inactive) | 2.25 µM (inactive)

— ChEMBL document CHEMBL1201862, “PubChem BioAssay data set” (2004)
